Data as given in the supplement of paper PMC10307832.

Experiments:
Assay in all cases: relative viability (nuclei count vs DMSO), 5 days (fraction); higher = more cells survive
[1] = compound: CCC1=CN=CN=C1N2CCN(CC2)CC3=NC4=C(N3)C=C(C=C4)C(F)(F)F + Cc1cc(Nc2cc(N3CCN(C)CC3)nc(Sc3ccc(NC(=O)C4CC4)cc3)n2)n[nH]1 [Tozasertib] (partner 0.1 µM)
Method in brief: (§1)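 Relative viability divides the nuclei count in treated wells by that in vehicle wells. Lung cancer cell lines were seeded in 1536-well plates, dosed by pin tool the next day, and fixed and stained after 5 days in one step with final 0.05% Triton X-100, 1% formaldehyde and 1 ug/ml Hoechst. Dosing was a single drug or a fixed anchor-drug dose plus five library-drug doses (not always all listed) in √10 steps, and values are medians of duplicate plates imaged at 4×.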

[2] = compound: CCC1=CN=CN=C1N2CCN(CC2)CC3=NC4=C(N3)C=C(C=C4)C(F)(F)F + O=C(CCCCCCC(=O)Nc1ccccc1)NO [Vorinostat] (partner 1 µM)
Method in brief: as §1

[3] = compound: CCn1c(-c2nonc2N)nc2cnc(Oc3cccc(NC(=O)c4ccc(OCCN5CCOCC5)cc4)c3)cc21 + C[C@]1(O)C[C@@H](c2nc(-c3ccc4ccc(-c5ccccc5)nc4c3)c3c(N)nccn32)C1 [Linsitinib] (partner 1 µM)
Method in brief: as §1

[4] = compound: N=C1NC(=O)/C(=C/c2ccc(O)cc2)S1 [Mirin] + N=C(N)NC(=N)NCCc1ccccc1 [Phenformin] (partner 250 µM)
Method in brief: as §1

| Cell Line | relative viability ([1]; first compound 0.04 µM) | relative viability ([1]; first compound 0.1265 µM) | relative viability ([1]; first compound 0.4 µM) | relative viability ([1]; first compound 1.265 µM) | relative viability ([1]; first compound 4 µM) | relative viability ([2]; first compound 0.04 µM) | relative viability ([2]; first compound 0.1265 µM) | relative viability ([2]; first compound 0.4 µM) | relative viability ([2]; first compound 1.265 µM) | relative viability ([2]; first compound 4 µM) | relative viability ([3]; first compound 0.04 µM) | relative viability ([3]; first compound 0.1265 µM) | relative viability ([3]; first compound 0.4 µM) | relative viability ([3]; first compound 1.265 µM) | relative viability ([3]; first compound 4 µM) | relative viability ([4]; first compound 0.25 µM) | relative viability ([4]; first compound 0.7906 µM) | relative viability ([4]; first compound 2.5 µM) | relative viability ([4]; first compound 25 µM) | relative viability ([4]; first compound 7.906 µM) |
| --- | --- | --- | --- | --- | --- | --- | --- | --- | --- | --- | --- | --- | --- | --- | --- | --- | --- | --- | --- | --- |
| NCI-H650 | 0.78 | 0.76 | 0.765 | 0.616 | 0.753 | 0.414 | 0.455 | 0.448 | 0.363 | 0.477 | 1.01 | 0.667 | 0.521 | 0.304 | 0.426 | 0.436 | 0.384 | 0.453 | 0.546 | – |
| NCI-H661 | 0.371 | 0.348 | 0.362 | 0.322 | 0.366 | 0.78 | 0.794 | 0.757 | 0.704 | 0.663 | 0.652 | 0.612 | 0.518 | 0.471 | 0.45 | 0.292 | 0.278 | 0.287 | 0.247 | 0.272 |
| NCI-H727 | 0.646 | 0.621 | 0.648 | 0.42 | 0.619 | 1.22 | 1.08 | 1.09 | 1.03 | 1.35 | 0.265 | 0.379 | 0.406 | 0.506 | 0.268 | 0.828 | 0.922 | 0.444 | 0.577 | 0.657 |
| NCI-H838 | 0.278 | 0.253 | 0.306 | 0.24 | 0.268 | 0.785 | 0.695 | 0.821 | 0.66 | 0.662 | 0.863 | 0.49 | 0.439 | 0.392 | 0.289 | 0.654 | 0.292 | 0.634 | 0.468 | 0.626 |
| NCI-H1355 | 0.566 | 0.513 | 0.495 | 0.413 | 0.421 | 0.643 | 0.575 | 0.584 | 0.585 | 0.644 | 0.904 | 0.77 | 0.802 | 0.834 | 0.812 | 0.472 | 0.463 | 0.456 | 0.521 | 0.47 |
| NCI-H1395 | 0.733 | 0.807 | 0.715 | 0.698 | 0.756 | 0.575 | 0.574 | 0.7 | – | 0.748 | 1.25 | 0.931 | 1.04 | 0.502 | 0.616 | 0.41 | 0.421 | 0.435 | 0.412 | 0.463 |
| NCI-H1437 | 0.419 | 0.364 | 0.366 | 0.367 | 0.294 | 0.915 | 0.748 | 0.745 | 0.64 | 0.5 | 1.31 | 1 | 1.05 | 0.742 | 0.549 | 0.31 | 0.333 | 0.318 | 0.309 | 0.3 |
| NCI-H1651 | 0.82 | 0.728 | 0.687 | 0.583 | 0.714 | 0.615 | 0.56 | 0.542 | 0.506 | 0.584 | 1.15 | 1.1 | 0.986 | 0.859 | 0.642 | 0.332 | 0.34 | 0.324 | 0.319 | 0.336 |
